Laboratory results reported in paper PMC10298512, “Synthesis and Anticancer Evaluation of Novel 7-Aza-Coumarine-3-Carboxamides” (International Journal of Molecular Sciences, 2023).
Read-outs that look alike come from different tables or passages of the source.

Legend:
M-HeLa = assay: MTT cytotoxicity test, M-HeLa cells; assay type: cell-based, human; settings: 24 h incubation, tested at 1–100 µM, three independent experiments, read-out: IC50 (µM) Cancer Cell Lines M-HeLa
HuTu 80 = assay: MTT cytotoxicity test, HuTu 80 cells; assay type: cell-based, human; settings: for IC50: MTT test, 24 h incubation, tested at 1–100 µM, three independent experiments, read-out: IC50 (µM) Cancer Cell Lines HuTu 80; for selectivity index, SI = IC50(Chang liver)/IC50(HuTu 80): normal Chang liver vs HuTu 80
Chang liver = assay: MTT cytotoxicity test, normal Chang liver cells; assay type: cell-based, human; settings: 24 h incubation, tested at 1–100 µM, three independent experiments, read-out: IC50 (µM) Normal Cell Lines Chang Liver

SMILES	IC50 (M-HeLa; Homo sapiens, M-HeLa)	IC50 (HuTu 80; Homo sapiens, HuTu80)	IC50 (Chang liver; Homo sapiens, Chang liver)	melting point	selectivity index, SI = IC50(Chang liver)/IC50(HuTu 80) (HuTu 80)	IC50 (M-HeLa)	IC50 (HuTu 80)	IC50 (Chang liver)
Cc1ncc(CO)c2cc(C(=O)O)c(=O)oc12 [3a, 5-(hydroxymethyl)-8-methyl-2-oxo-2H-pyrano[2,3-c]pyridin-7-ium-3-carboxylate]	75.5 ± 6 µM	57.6 ± 4.6 µM	58 ± 4.7 µM	249 to 250 °C				
Cc1ncc(COP(=O)(O)O)c2cc(C(=O)O)c(=O)oc12 [3b, 8-methyl-2-oxo-5-((phosphonooxy)methyl)-2H-pyrano[2,3-c]pyridin-7-ium-3-carboxylate]	70.6 ± 5.7 µM	60.5 ± 5.3 µM	70 ± 5.6 µM	> 300 °C				
O=c1[nH]cc(F)c(=O)[nH]1 [5-fluorouracil, reference compound]	62 ± 4.7 µM	65.2 ± 5.4 µM	86.3 ± 6.5 µM					
Cc1ncc(CCl)c2cc(C(=O)Nc3ccccc3)c(=O)oc12 [7a, 5-(Chloromethyl)-8-methyl-2-oxo-N-phenyl-2aH-pyrano[2,3-c]pyridine-3-carboxamide]	> 100 µM	59.4 ± 4.8 µM	56.6 ± 4.5 µM	240 °C (dec.)				
COc1ccccc1NC(=O)c1cc2c(CCl)cnc(C)c2oc1=O [7b, 5-(Chloromethyl)-N-(2-methoxyphenyl)-8-methyl-2-oxo-2H-pyrano[2,3-c]pyridine-3-carboxamide]	84.4 ± 5.5 µM	55.3 ± 3.9 µM	46 ± 3.2 µM	214 to 215 °C				
Cc1ncc(CCl)c2cc(C(=O)Nc3ccc([N+](=O)[O-])cc3Br)c(=O)oc12 [7c, N-(2-Bromo-4-nitrophenyl)-5-(chloromethyl)-8-methyl-2-oxo-2H-pyrano[2,3-c]pyridine-3-carboxamide]	67.4 ± 4.6 µM	43 ± 3.5 µM	89.4 ± 6.3 µM	240 °C (dec.)				
Cc1ncc(CCl)c2cc(C(=O)Nc3ccccn3)c(=O)oc12 [7d, 5-(Chloromethyl)-8-methyl-2-oxo-N-(pyridin-2-yl)-2H-pyrano[2,3-c]pyridine-3-carboxamide]	84 ± 5.9 µM	62 ± 4.3 µM	88 ± 6.2 µM	> 300 °C				
Cc1ncc(CCl)c2cc(C(=O)Nc3cccnc3N)c(=O)oc12 [7e, N-(2-Aminopyridin-3-yl)-5-(chloromethyl)-8-methyl-2-oxo-2H-pyrano[2,3-c]pyridine-3-carboxamide]	54.3 ± 3.6 µM	72 ± 5.2 µM	55.3 ± 3.7 µM	> 300 °C				
Cc1ncc(CCl)c2cc(C(=O)N(c3ccccc3)c3ccccc3)c(=O)oc12.Cl [7f, 5-(Chloromethyl)-3-(diphenylcarbamoyl)-8-methyl-2-oxo-2H-pyrano[2,3-c]pyridin-7-ium chloride]	32 ± 2.2 µM	17.4 ± 1.3 µM	48.4 ± 3.3 µM	201 to 205 °C				
C#CCNC(=O)c1cc2c(CCl)cnc(C)c2oc1=O [7g, 5-(Chloromethyl)-8-methyl-2-oxo-N-(prop-2-yn-1-yl)-2H-pyrano[2,3-c]pyridine-3-carboxamide]	14.1 ± 1.2 µM	11.2 ± 0.9 µM	13.9 ± 0.3 µM	161 °C (dec.)				
Cc1ncc(CCl)c2cc(C(=O)Nc3ccc(S(N)(=O)=O)cc3)c(=O)oc12 [7h, 5-(Chloromethyl)-8-methyl-2-oxo-N-(4-sulfamoylphenyl)-2H-pyrano[2,3-c]pyridine-3-carboxamide]	14.8 ± 1.3 µM	2.9 ± 0.2 µM	29.8 ± 2 µM	> 300 °C	10			
CC(=O)NS(=O)(=O)c1ccc(NC(=O)c2cc3c(CCl)cnc(C)c3oc2=O)cc1 [7i, N-(4-(N-Acetylsulfamoyl)phenyl)-5-(chloromethyl)-8-methyl-2-oxo-2H-pyrano[2,3-c]pyridine-3-carboxamide]	77.8 ± 5.4 µM	31 ± 1.9 µM	116 ± 8.1 µM	> 300 °C				
Cc1ncc(CCl)c2cc(C(=O)Nc3ccc(S(=O)(=O)Nc4ncccn4)cc3)c(=O)oc12 [7j, 5-(Chloromethyl)-8-methyl-2-oxo-N-(4-(N-(pyrimidin-2-yl)sulfamoyl)phenyl)-2H-pyrano[2,3-c]pyridine-3-carboxamide]	73.4 ± 5.2 µM	32 ± 2.1 µM	73 ± 5.5 µM	> 300 °C				
Cc1ccnc(NS(=O)(=O)c2ccc(NC(=O)c3cc4c(CCl)cnc(C)c4oc3=O)cc2)n1 [7k, 5-(Chloromethyl)-8-methyl-N-(4-(N-(4-methylpyrimidin-2-yl)sulfamoyl)phenyl)-2-oxo-2H-pyrano[2,3-c]pyridine-3-carboxamide]	47 ± 3.1 µM	18.1 ± 1.4 µM	61.3 ± 4.2 µM	> 300 °C				
Cc1cc(C)nc(NS(=O)(=O)c2ccc(NC(=O)c3cc4c(CCl)cnc(C)c4oc3=O)cc2)n1 [7l, 5-(Chloromethyl)-N-(4-(N-(4,6-dimethylpyrimidin-2-yl)sulfamoyl)phenyl)-8-methyl-2-oxo-2H-pyrano[2,3-c]pyridine-3-carboxamide]	62.4 ± 4.4 µM	52.1 ± 3.4 µM	126 ± 8.8 µM	> 300 °C				
Cc1ncc(CCl)c2cc(C(=O)NNC(=O)c3ccccc3)c(=O)oc12 [7m, N′-Benzoyl-5-(chloromethyl)-8-methyl-2-oxo-2H-pyrano[2,3-c]pyridine-3-carbohydrazide]	61.1 ± 4.2 µM	49.7 ± 3.5 µM	62.4 ± 4.9 µM	240 °C (dec.)				
Cc1ncc(CCl)c2cc(C(=O)NNC(=O)c3ccncc3)c(=O)oc12 [7n, 5-(Chloromethyl)-N′-isonicotinoyl-8-methyl-2-oxo-2H-pyrano[2,3-c]pyridine-3-carbohydrazide]	93.1 ± 6.6 µM	61.2 ± 4.2 µM	64.1 ± 4.8 µM	> 300 °C				
Cc1ncc(CCl)c2cc(C(=O)Nc3ccccc3NC(=O)c3cc4c(CCl)cnc(C)c4oc3=O)c(=O)oc12 [7o, N,N′-(1,2-Phenylene)bis(5-(chloromethyl)-8-methyl-2-oxo-2H-pyrano[2,3-c]pyridine-3-carboxamide)]	22.5 ± 1.8 µM	3.1 ± 0.2 µM	11.8 ± 0.9 µM	239 to 241 °C	3.8			
Cc1ncc(CCl)c2cc(C(=O)Nc3cccc(NC(=O)c4cc5c(CCl)cnc(C)c5oc4=O)c3)c(=O)oc12 [7p, N,N′-(1,3-Phenylene)bis(5-(chloromethyl)-8-methyl-2-oxo-2H-pyrano[2,3-c]pyridine-3-carboxamide)]	63 ± 4.4 µM	81.5 ± 5.7 µM	37 ± 2.6 µM	274 °C (dec.)				
Cc1ncc(CCl)c2cc(C(=O)Nc3ccc(NC(=O)c4cc5c(CCl)cnc(C)c5oc4=O)cc3)c(=O)oc12 [7q, N,N′-(1,4-Phenylene)bis(5-(chloromethyl)-8-methyl-2-oxo-2H-pyrano[2,3-c]pyridine-3-carboxamide)]	84.3 ± 5.9 µM	95.4 ± 6.5 µM	> 100 µM	> 300 °C				
Cc1ncc(CCl)c2cc(C(=O)Nc3cccc(S(=O)(=O)c4cccc(NC(=O)c5cc6c(CCl)cnc(C)c6oc5=O)c4)c3)c(=O)oc12 [7s, N,N′-(Sulfonylbis(3,1-phenylene))bis(5-(chloromethyl)-8-methyl-2-oxo-2H-pyrano[2,3-c]pyridine-3-carboxamide)]	80 ± 5.7 µM	13.8 ± 1.1 µM	125 ± 11 µM	> 300 °C	9			
Cc1ncc(CO)c2cc(C(=O)O)c(=O)oc12.NC1CCCCC1 [8b, Cyclohexanaminium 5-(hydroxymethyl)-8-methyl-2-oxo-2H-pyrano[2,3-c]pyridine-3-carboxylate]						70.4 ± 5.7 µM	78.2 ± 6.3 µM	81 ± 6.5 µM
Cc1ncc(CO)c2cc(C(=O)O)c(=O)oc12.Cc1ncc(CO)c2cc(C(=O)O)c(=O)oc12.Nc1cccc(N)n1 [8d, Pyridine-2,6-diaminium 5-(hydroxymethyl)-8-methyl-2-oxo-2H-pyrano[2,3-c]pyridine-3-carboxylate]						> 100 µM	88.4 ± 7 µM	64.1 ± 5.1 µM
Cc1ncc(COP(=O)(O)O)c2cc(C(=O)O)c(=O)oc12.Nc1ccccn1 [8e, Pyridin-2-aminium 8-methyl-2-oxo-5-((phosphonooxy)methyl)-2H-pyrano[2,3-c]pyridine-3-carboxylate]						99.5 ± 7.1 µM	59 ± 4.1 µM	78.4 ± 6.3 µM
COc1cccc2c1C(=O)c1c(O)c3c(c(O)c1C2=O)C[C@@](O)(C(=O)CO)C[C@@H]3O[C@H]1C[C@H](N)[C@H](O)[C@H](C)O1 [Doxorubicin, reference compound]	3 ± 0.2 µM	3 ± 0.2 µM	3 ± 0.1 µM		1			
Cc1ncc(CO)c2c1OC1=C(C(=O)CC(C)(C)C1)C2C1=C(O)CC(C)(C)CC1=O (stereo not shown) [compound 4, 5-(2-hydroxy-4,4-dimethyl-6-oxocyclohex-1-en-1-yl)-4-(hydroxymethyl)-1,8,8-trimethyl-5,7,8,9-tetrahydro-6H-chromeno[2,3-c]pyridin-6-one]				219 to 224 °C				
